{"source": "patent US9474278B2", "about": "“Biocidal compositions and methods of use” (Dow Global Technologies LLC, priority 2011, dated 2016)", "key": {"[1]": {"tested_on": "Staphylococcus aureus ATCC 6538, Enterobacter aerogenes ATCC 13048, and Escherichia coli ATCC 8739", "test": "Biocidal efficacy: minimum biocide concentration for 99.9% bacterial kill in inoculated salt solution with re-challenges", "assay_type": "cell-based", "conditions": "alone or in the combination, 37° C.", "method": "(§1) The synergy indexes reported in the following examples are calculated using the following equation: Synergy Index=Ca/CA+Cb/CB\nCa: Concentration of biocide A required to achieve a certain level of bacterial kill when used in combination with B.\nCA: Concentration of biocide A required to achieve a certain level of bacterial kill when used alone.\nCb: Concentration of biocide B required to achieve a certain level of bacterial kill when used in combination with A.\nCB: Concentration of biocide B required to achieve a certain level of bacterial kill when used alone.\n(§2) A synergy index (SI) of 1 indicates additivity, a synergy index of less than 1 indicates synergy, and a synergy index greater than 1 indicates antagonism.\nA sterile salt solution (0.2203 g of CaCl2, 0.1847 g of MgSO4, and 0.2033 g of NaHCO3 in 1 L water) is inoculated with approximately 10^7 CFU/mL of Staphylococcus aureus ATCC 6538, Enterobacter aerogenes ATCC 13048, and Escherichia coli ATCC 8739. Aliquots of the cell suspension are then treated with THPS, BIT, and combinations of these actives at selected concentrations and incubated at 37° C. for 14 days. After incubation for 24 hours, 3 days, and 7 days, the aliquots are re-challenged with bacterial suspension of the same bacteria at a final bacterial concentration of 10^5 CFU/mL. The biocidal efficacy is measured at 2 hours and 14 days by determining the minimum biocide concentration for 99.9% bacterial kill in the aliquots. Synergy Index is then calculated. Table 1 and 2 summarize the efficacy of each biocide and their combinations at 2 hour and 14 day treatment time respectively, and the resulting Synergy Index of each combination."}, "[2]": {"tested_on": "Candida albican, ATCC #10231", "test": "96 well micro titer plate MIC / synergy assay in SDB", "assay_type": "cell-based", "conditions": "alone or in the combination, 48 hours", "method": "as §1, §2"}}, "data": [{"compound": "O=c1[nH]sc2ccccc12", "note": "[BIT, 1,2-benzisothiazolin-3-one]", "values": [{"measurement": "Concentration (ppm active) for 99.9% bacterial kill in 2 hours, BIT", "setting": "[1]; BIT concentration, 2 hour treatment", "result": ">300", "unit": "ppm active"}, {"measurement": "Concentration (ppm active) for 99.9% bacterial kill in 14 days, BIT", "setting": "[1]; BIT concentration, 14 day treatment, re-challenged at 24 hours, 3 days, 7 days", "result": 150, "unit": "ppm active"}]}, {"compound": "Cn1sc2ccccc2c1=O", "note": "[MBIT, 2-methyl-1,2-benzisothiazolin-3-one]", "values": [{"measurement": "Minimum Inhibitory Concentration against Candida albican (ppm), MBIT", "setting": "[2]; MBIT concentration", "result": 0.375, "unit": "ppm"}]}, {"compound": "tetrakis (hydroxymethyl) phosphonium sulfate [THPS]", "values": [{"measurement": "Concentration (ppm active) for 99.9% bacterial kill in 2 hours, THPS", "setting": "[1]; THPS concentration, 2 hour treatment", "result": 38, "unit": "ppm active"}, {"measurement": "Concentration (ppm active) for 99.9% bacterial kill in 14 days, THPS", "setting": "[1]; THPS concentration, 14 day treatment, re-challenged at 24 hours, 3 days, 7 days", "result": ">300", "unit": "ppm active"}, {"measurement": "Minimum Inhibitory Concentration against Candida albican (ppm), THPS", "setting": "[2]; THPS concentration", "result": 1000, "unit": "ppm"}]}]}
